Experimental data from BigSolDB 2.1.

CCN(CC)C(=S)SSC(=S)N(CC)CC
solubility (mole fraction)
Conditions | in THF | in acetonitrile | in dichloromethane | in ethanol | in ethyl acetate | in isobutanol | in isopropanol | in methanol | in n-butanol | in n-propanol
273.15 K | 0.0618 | 0.0134 | 0.11 | 0.000903 | 0.00709 | 0.00101 | 0.000564 | 0.000896 | 0.00109 | 0.00101
278.15 K | 0.0719 | 0.0174 | 0.118 | 0.00111 | 0.0101 | 0.00119 | 0.000733 | 0.00105 | 0.00155 | 0.00127
283.15 K | 0.0825 | 0.024 | 0.13 | 0.00143 | 0.0143 | 0.00146 | 0.000981 | 0.00134 | 0.00216 | 0.00167
288.15 K | 0.0942 | 0.0313 | 0.143 | 0.00192 | 0.0201 | 0.00198 | 0.00133 | 0.00172 | 0.0028 | 0.00229
293.15 K | 0.111 | 0.041 | 0.159 | 0.00266 | 0.0275 | 0.00263 | 0.0018 | 0.00235 | 0.00375 | 0.00301
298.15 K | 0.131 | 0.0558 | 0.175 | 0.00339 | 0.0405 | 0.0035 | 0.0026 | 0.00323 | 0.00518 | 0.00423
303.15 K | 0.152 | 0.0793 | 0.202 | 0.00466 | 0.0571 | 0.0052 | 0.00346 | 0.0042 | 0.00715 | 0.00571
308.15 K | 0.173 | 0.108 | 0.229 | 0.0063 | 0.0809 | 0.00779 | 0.0047 | 0.00541 | 0.0104 | 0.00797
313.15 K | 0.198 | 0.141 | 0.263 | 0.00911 | 0.107 | 0.011 | 0.00651 | 0.00736 | 0.0151 | 0.0106
318.15 K | 0.228 | 0.184 | – | 0.0131 | 0.143 | 0.0152 | 0.00964 | 0.0106 | 0.0208 | 0.0155
